Data reported in paper PMC8147214, “Identification and Characterization of a Novel, Cold-Adapted D-Xylobiose- and D-Xylose-Releasing Endo-β-1,4-Xylanase from an Antarctic Soil Bacterium, Duganella sp. PAMC 27433” (Biomolecules, 2021).

Test system: T1, rXylR
T1 construct: gene XylR; mature GH10 xylanase, signal peptide (1-23) removed, N-terminal His6 tag (pET-28a(+)) kept; E. coli BL21; precursor 373 aa; mature N-terminus AEDTPEP by primer
Assay: p-nitrophenol release, Michaelis-Menten non-linear regression
Type: biochemical, Duganella sp. PAMC 27433
Conditions: 50 mM sodium phosphate pH 5.5, 40 °C; substrate 1-10 mM
Description: p-nitrophenol release, Michaelis-Menten non-linear regression on rXylR

Km: 1210 µM
Compound: O=[N+]([O-])c1ccc(O[C@@H]2O[C@H](CO)[C@@H](O[C@@H]3O[C@H](CO)[C@@H](O)[C@H](O)[C@H]3O)[C@H](O)[C@H]2O)cc1 [pNP-β-D-cellobioside]
